Assay results reported in ChEMBL document CHEMBL1201862, “PubChem BioAssay data set” (2004).
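Compound exposure: 48 hours, 5 concentrations, 96-well plates. At the GI50, growth is halved.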 Active and inactive are the calls of the source. No stated cut-off is given here; in the data, active = GI50 up to about 1.1 µM and inactive = higher.

How the values were obtained:
Experiment in all cases: NCI-60 cell line screen, 48 h
[1] = tested on: UACC-62
[2] = tested on: SN12C
[3] = tested on: NCI-H226
[4] = tested on: COLO 205
[5] = tested on: SK-MEL-5
[6] = tested on: UACC-257
[7] = tested on: HT-29
[8] = tested on: HCT-15
[9] = tested on: OVCAR-8
[10] = tested on: CAKI-1
[11] = tested on: HOP-62
[12] = tested on: OVCAR-5
[13] = tested on: Malme-3M
[14] = tested on: NCI-H23
[15] = tested on: SK-MEL-2
[16] = tested on: K562
[17] = tested on: Hs-578T
[18] = tested on: PC-3
[19] = tested on: BT-549

| SMILES | GI50 [1] | GI50 [2] | GI50 [3] | GI50 [4] | GI50 [5] | GI50 [6] | GI50 [7] | GI50 [8] | GI50 [9] | GI50 [10] | GI50 [11] | GI50 [12] | GI50 [13] | GI50 [14] | GI50 [15] | GI50 [16] | GI50 [17] | GI50 [18] | GI50 [19] |
| --- | --- | --- | --- | --- | --- | --- | --- | --- | --- | --- | --- | --- | --- | --- | --- | --- | --- | --- | --- |
| COc1ccc2nc3ccccc3c(NCCCCCCN(C)CCCl)c2c1 | 0.307 µM (active) | 0.0689 µM (active) | 0.104 µM (active) | 0.265 µM (active) | 0.918 µM (active) | 1.41 µM (inactive) | 0.122 µM (active) | 0.221 µM | 0.296 µM (active) | 0.314 µM (active) | 1.05 µM (active) | 1.11 µM (active) | 0.82 µM (active) | 0.175 µM (active) | 0.293 µM (active) | 0.0582 µM (active) | – | – | – |
| CC(=O)c1cn(-c2ccc(Cl)cc2)c(=O)c2c(N)n[nH]c12 | 41.7 µM (inactive) | – | > 100 µM (inactive) | > 100 µM (inactive) | > 100 µM (inactive) | > 100 µM (inactive) | > 100 µM (inactive) | > 100 µM | > 100 µM (inactive) | > 100 µM (inactive) | > 100 µM (inactive) | – | – | > 100 µM (inactive) | > 100 µM (inactive) | 22.3 µM (inactive) | > 100 µM (inactive) | > 100 µM (inactive) | 2.56 µM (inactive) |
| CCOc1ccc(/C(C=O)=C(\Cl)c2ccc(OC)cc2)cc1 | > 51.9 µM (inactive) | > 100 µM (inactive) | > 100 µM (inactive) | > 51.5 µM (inactive) | 41.7 µM (inactive) | 9.35 µM (inactive) | > 39.4 µM (inactive) | 28.6 µM | > 100 µM (inactive) | > 40 µM (inactive) | 46.7 µM (inactive) | > 100 µM (inactive) | > 70.5 µM (inactive) | > 100 µM (inactive) | > 100 µM (inactive) | 12.5 µM (inactive) | 34.4 µM (inactive) | – | > 100 µM (inactive) |
| COc1ccc2c(c1)Oc1cc(O)ccc1[C@H]2c1ccccc1C(=O)NC(C)c1ccccc1 (stereo partly specified) | 12.1 µM (inactive) | 16.3 µM (inactive) | 20.7 µM (inactive) | 17.1 µM (inactive) | 15.1 µM (inactive) | 17.4 µM (inactive) | 19.9 µM (inactive) | 14.6 µM | 16 µM (inactive) | 17.3 µM (inactive) | 18.8 µM (inactive) | 15.3 µM (inactive) | 20.4 µM (inactive) | 15.5 µM (inactive) | 21.5 µM (inactive) | 16.8 µM (inactive) | – | – | – |
| CC[C@@H]1OC2(C)CC(S(=O)(=O)c3ccccc3O)CC1O2 (stereo partly specified) | > 100 µM (inactive) | > 100 µM (inactive) | > 100 µM (inactive) | > 100 µM (inactive) | > 100 µM (inactive) | > 100 µM (inactive) | > 10 µM (inactive) | > 100 µM | > 100 µM (inactive) | < 0.01 µM (active) | > 100 µM (inactive) | > 100 µM (inactive) | > 100 µM (inactive) | > 100 µM (inactive) | > 100 µM (inactive) | > 100 µM (inactive) | – | – | – |
| Nn1c(-c2cccc(Cl)c2)nc2ccccc2c1=O | > 100 µM (inactive) | > 100 µM (inactive) | > 100 µM (inactive) | > 100 µM (inactive) | > 100 µM (inactive) | > 100 µM (inactive) | > 100 µM (inactive) | > 100 µM | > 100 µM (inactive) | > 100 µM (inactive) | > 100 µM (inactive) | > 100 µM (inactive) | > 100 µM (inactive) | > 100 µM (inactive) | > 100 µM (inactive) | > 100 µM (inactive) | – | – | – |
| CC1(C)CC(=O)C(C(=O)Nc2cccs2)=C(O)C1 | 29.2 µM (inactive) | 39.4 µM (inactive) | 23.4 µM (inactive) | 19.6 µM (inactive) | 40.6 µM (inactive) | 47.9 µM (inactive) | 49.1 µM (inactive) | 33.9 µM | 34.8 µM (inactive) | 14.6 µM (inactive) | 34.8 µM (inactive) | 44 µM (inactive) | 32.1 µM (inactive) | 30 µM (inactive) | 35.9 µM (inactive) | 28.1 µM (inactive) | – | – | – |
| O=CC12c3ccccc3C(c3ccccc31)C1C(=O)NC(=O)C12 (stereo unspecified) | > 100 µM (inactive) | > 100 µM (inactive) | > 100 µM (inactive) | > 100 µM (inactive) | 37.2 µM (inactive) | > 100 µM (inactive) | > 100 µM (inactive) | > 100 µM | > 100 µM (inactive) | 54.2 µM (inactive) | 56 µM (inactive) | > 100 µM (inactive) | 90.2 µM (inactive) | > 100 µM (inactive) | > 100 µM (inactive) | 66.8 µM (inactive) | – | > 100 µM (inactive) | – |
